Measurements reported in US20210113586A1, “NEW USE AND METHODS OF MODULATING IMMUNE RESPONSES” (DIAMYD MEDICAL AB, priority 2018, published 2021).

How the values were obtained:
[1] = tested on: PBMCs from ND individuals; conditions: Example 1, FIG. 1C; PBMCs of 15 healthy donors; 100 nM GABA
Method: (§1) Peripheral Blood Mononuclear cells (PBMCs) are isolated from blood from donors diagnosed with Type-1 diabetes and healthy controls. Alternatively, CD4-positive cells (T-cells) are further isolated from PBMCs by e.g. MACS beads, FACS or similar technology. […] A reasonable replication, such as 3 cultures of each condition, is performed. A normalized proliferation value for each culture is then calculated by a standard proliferation measurement method, such as by CFSE staining or radioactive thymidine incorporation (requiring additional factors be added during culture) or by staining for proliferation markers.
(§2) In the FIG. 1, the proliferation of cells retrieved from 13 T1D subjects and 15 healthy controls were inspected. […] A normalized proliferation index was calculated for each culture.
The proliferation of freshly isolated human PBMCs or CD4^+ T cells was evaluated with MTT (3-(4,5-Dimethylthiazol-2-yl)-2,5-Diphenyltetrazolium Bromide) assay (Ring et al., 2012). Cells were suspended in complete medium (RPMI 1640 supplemented with 2 mM glutamine, 25 mM HEPES, 10% heat inactivated fetal bovine serum, 100 U/ml penicillin, 10 mg/ml streptomycin, 5 mM R-mercaptoethanol) in a concentration 1 million cells per milliliter. […] The formazan crystal pellet was dissolved in DMSO and the plate was read within 10 min using a Multiskan MS plate reader (Labsystems) at 550 nm. […]

responder CD4+ T cells = experiment: Proliferation of anti-CD3 stimulated GABA responder CD4+ T cells from ND individuals; type: cell-based, human; conditions: Example 1, FIG. 1B; CD4-positive cells from 10 healthy donors; 100 nM GABA
Method: as §1, §2
(§3) The proliferation of freshly isolated human PBMCs or CD4^+ T cells was evaluated with MTT (3-(4,5-Dimethylthiazol-2-yl)-2,5-Diphenyltetrazolium Bromide) assay (Ring et al., 2012). Cells were suspended in complete medium (RPMI 1640 supplemented with 2 mM glutamine, 25 mM HEPES, 10% heat inactivated fetal bovine serum, 100 U/ml penicillin, 10 mg/ml streptomycin, 5 mM R-mercaptoethanol) in a concentration 1 million cells per milliliter. The assay was performed in 96-well plates in duplicates or triplicates, where each well was pre-coated with 3 μg/ml anti-CD3 antibody for 3-5 h at 37° C. Each well was loaded with 100,000 cells. Drugs were added to the wells at the relevant concentrations. The plate was incubated for 68 h at 37° C. (95% O2, 5% CO2) and then, a media-soluble tetrazolium dye MTT was added to a final concentration of 1 mM after which the plate was incubated for additional 4 h. The plate was then centrifuged at 2,000 RPM for 10 min to pellet the insoluble purple formazan crystals. The supernatant culture media was collected, stored at −80° C. and used for analysis of cytokines using the multiplex proximity extension assay (PEA). The formazan crystal pellet was dissolved in DMSO and the plate was read within 10 min using a Multiskan MS plate reader (Labsystems) at 550 nm. The optical density value was used as the proliferation index value. Drugs were purchased from Sigma-Aldrich or Tocris (Bristol, UK).

[2] = tested on: PBMCs from nondiabetic (ND) individuals; conditions: GABA 100 nM, normalized to control
Method: as §3
(§4) Plasma samples, and culture media samples that were collected from plate wells at the end of the proliferation assay, were analyzed by multiplex PEA with an Olink Inflammation […] panel, targeting 92 proteins related to inflammation (Olink Proteomics, Uppsala, Sweden) as previously described (Edvinsson et al., 2017, Assarsson et al., 2014, Larsson et al., 2015, Larssen et al., 2017). Briefly, 1 μl of sample (plasma samples or cell culture media samples) or negative control was mixed with 3 μl probe solution containing a set of 92 paires DNA-oligonucleotide-conjugated antibodies. Upon recognition of a target protein by a pair of probes, the DNA oligonucletodies on the antibodies are brought in proximity and hybridize to each other, followed by enzymatic DNA polymerization to form a new DNA molecule. The newly formed DNA molecule is then amplified and quantified using a microfluidic real-time qPCR, BioMark™ HD (Fluidigm, South San Francisco, Calif., USA). The generated quantification cycle (Cq) values are normalized against spiked-in controls to convert Cq values to Normalized Protein eXpression (NPX) value on log2 scale. NPX is an arbitrary unit, which is positively correlated to protein concentration. These NPX data were then converted to linear data, using the formula 2^NPX, prior to further statistical analysis. Limit of detection (LOD) for each protein was defined as three standard deviations above the background. Proteins with levels below LOD were excluded from further data analysis.

[3] = tested on: PBMCs from type 1 diabetic (T1D) patients; conditions: GABA 100 nM
Method: as §3, §4

[4] = tested on: non-responder CD4+ T cells; experiment: Multiplex PEA of cytokines released into culture medium by non-responder CD4+ T cells; type: cell-based, human
Method: as §3, §4

[5] = T1D PBMCs, normalized to control
[6] = GABA 100 nM, non-responder CD4+ T cells, normalized to control
[7] = GABA 500 nM, non-responder CD4+ T cells, normalized to control

Structure (SMILES): NCCCC(=O)O [GABA, gamma-aminobutyric acid]
- proliferation in the presence of GABA [1]: did not proliferate differently
- proliferation in the presence of GABA (responder CD4+ T cells): did proliferate less
- AXIN1 in culture medium, % Mean [2]: 82.3%
- CCL4 in culture medium, % Mean [2]: 95.3%
- CD244 in culture medium, % Mean [2]: 92.5%
- CXCL9 in culture medium, % Mean [2]: 81.3%
- IL-12B in culture medium, % Mean [2]: 84.8%
- IL-18R1 in culture medium, % Mean [2]: 90.7%
- LIF in culture medium, % Mean [2]: 88.5%
- OPG in culture medium, % Mean [2]: 81.8%
- OSM in culture medium, % Mean [2]: 88.1%
- PD-L1 in culture medium, % Mean [2]: 87.8%
- SIRT2 in culture medium, % Mean [2]: 81.6%
- TNF in culture medium, % Mean [2]: 74.1%
- TNFB in culture medium, % Mean [2]: 95.7%
- TNFRSF9 in culture medium, % Mean [2]: 99.6%
- TNFSF14 in culture medium, % Mean [2]: 89.2%
- TWEAK in culture medium, % Mean [2]: 86.3%
- 4E-BP1 in culture medium, % Mean [3, 5]: 45.5%
- ADA in culture medium, % Mean [3, 5]: 53.4%
- AXIN1 in culture medium, % Mean [3, 5]: 62.8%
- CASP-8 in culture medium, % Mean [3, 5]: 60.9%
- CCL4 in culture medium, % Mean [3, 5]: 85.1%
- CCL19 in culture medium, % Mean [3, 5]: 43.8%
- CCL20 in culture medium, % Mean [3, 5]: 31.5%
- CD244 in culture medium, % Mean [3, 5]: 76.3%
- CSF-1 in culture medium, % Mean [3, 5]: 70.5%
- CXCL1 in culture medium, % Mean [3, 5]: 52.6%
- CXCL5 in culture medium, % Mean [3, 5]: 68.1%
- CXCL6 in culture medium, % Mean [3, 5]: 54.0%
- CXCL9 in culture medium, % Mean [3, 5]: 45.5%
- CXCL10 in culture medium, % Mean [3, 5]: 42.5%
- CXCL11 in culture medium, % Mean [3, 5]: 61.4%
- EN-RAGE in culture medium, % Mean [3, 5]: 71.1%
- Flt3L in culture medium, % Mean [3, 5]: 62.9%
- IL-1 alpha in culture medium, % Mean [3, 5]: 43.5%
- IL-2RB in culture medium, % Mean [3, 5]: 73.0%
- IL-4 in culture medium, % Mean [3, 5]: 117.0%
- IL-5 in culture medium, % Mean [3, 5]: 85.3%
- IL-6 in culture medium, % Mean [3, 5]: 49.4%
- IL-10 in culture medium, % Mean [3, 5]: 61.4%
- IL-12B in culture medium, % Mean [3, 5]: 53.3%
- IL-13 in culture medium, % Mean [3, 5]: 53.0%
- IL-17A in culture medium, % Mean [3, 5]: 58.9%
- IL-18R1 in culture medium, % Mean [3, 5]: 63.3%
- IL-24 in culture medium, % Mean [3, 5]: 86.9%
- LAP TGF-beta-1 in culture medium, % Mean [3, 5]: 67.6%
- LIF in culture medium, % Mean [3, 5]: 70.0%
- MCP-1 in culture medium, % Mean [3, 5]: 53.0%
- MCP-2 in culture medium, % Mean [3, 5]: 35.4%
- MCP-3 in culture medium, % Mean [3, 5]: 44.6%
- MIP-1 alpha in culture medium, % Mean [3, 5]: 106.2%
- MMP-1 in culture medium, % Mean [3, 5]: 78.4%
- MMP-10 in culture medium, % Mean [3, 5]: 61.3%
- OPG in culture medium, % Mean [3, 5]: 45.1%
- OSM in culture medium, % Mean [3, 5]: 69.8%
- PD-L1 in culture medium, % Mean [3, 5]: 57.0%
- SIRT2 in culture medium, % Mean [3, 5]: 53.5%
- STAMP8 in culture medium, % Mean [3, 5]: 53.9%
- TGFA in culture medium, % Mean [3, 5]: 61.1%
- TNF in culture medium, % Mean [3, 5]: 47.4%
- TNFRSF9 in culture medium, % Mean [3, 5]: 71.1%
- TNFSF14 in culture medium, % Mean [3, 5]: 69.9%
- TRAIL in culture medium, % Mean [3, 5]: 67.0%
- TWEAK in culture medium, % Mean [3, 5]: 55.7%
- VEGF-A in culture medium, % Mean [3, 5]: 82.1%
- μPA in culture medium, % Mean [3, 5]: 86.3%
- number of cytokines whose release was increased ([3]; n=13, FIG. 4c): two
- IL-1 alpha in culture medium, % Mean [4, 6]: 112.8%
- MMP-1 in culture medium, % Mean [4, 6]: 124.2%
- IL-5 in culture medium, % Mean [4, 7]: 87.2%
- PD-L1 in culture medium, % Mean [4, 7]: 120.4%
- TGF-alpha in culture medium, % Mean [4, 7]: 109.5%
- number of cytokines whose secretion was regulated ([4]; GABA 100 and 500 nM, at each concentration): four
